The values that follow come from article PMC3783901, “A spectrophotometric coupled enzyme assay to measure the activity of succinate dehydrogenase^” (Analytical Biochemistry, 2013).

Read-outs that look alike come from different tables or passages of the source.

Data set [1] has as its target T1, complex II (succinate:ubiquinone oxidoreductase, succinate dehydrogenase) in bovine heart submitochondrial particles (Bos taurus, UniProt P31039+P35720+Q3T189+Q95123).
T1 construct: gene SDHA; native four-subunit complex in submitochondrial particles from bovine heart mitochondria, not isolated; dicarboxylate site in SDHA, ubiquinone site at SDHB/SDHC/SDHD
Nature of the data set: coupled FumC-MaeB assay of succinate oxidation in SMPs, NADPH absorbance. Conditions: pH 7.4, 32 °C, 2 mM NADP+, 2 mM MgSO4, endogenous ubiquinone-10, turnover to O2, kcat uses a published complex II content. It counts as biochemical.

Data set [2] addresses FumC (fumarate hydratase) (Escherichia coli, UniProt P05042). Conditions: pH 7.4, 32 °C, 10 mM Tris-SO4, 2 mM MgSO4, 1 mM K2SO4, 2 mM NADP+, 300 μg/ml MaeB; kcat apparently per tetramer.
The target in data set [3] is T1, complex II (succinate:ubiquinone oxidoreductase, succinate dehydrogenase) in bovine heart submitochondrial particles. The data set can be described thus: coupled FumC-MaeB assay of succinate oxidation in SMPs, NADPH absorbance. It counts as biochemical. To be noted: 5 mM succinate, pH 7.4, 32 °C, 2 mM NADP+, 2 mM MgSO4. From the text: coupled FumC-MaeB assay of succinate oxidation in SMPs, NADPH absorbance on complex II (succinate:ubiquinone oxidoreductase, succinate dehydrogenase) in bovine heart submitochondrial particles | atpenin A5, an inhibitor that binds in the complex II ubiquinone-binding site, has an IC50 | malonate, an inhibitor that binds in the complex II flavin site, has an IC50

Substrate in data set [4]: NC(=O)c1ccc[n+]([C@@H]2O[C@H](COP(=O)(O)OP(=O)(O)OC[C@H]3O[C@@H](n4cnc5c(N)ncnc54)[C@H](OP(=O)(O)O)[C@@H]3O)[C@@H](O)[C@H]2O)c1
The data set can be described thus: purified protein. Conditions: 40 mM malate, pH 7.4, 32 °C, 10 mM Tris-SO4, 2 mM MgSO4, 1 mM K2SO4.

Substrate in data set [5]: O=C(O)C[C@H](O)C(=O)O
The data set can be described thus: purified protein. Conditions: 4 mM NADP+, pH 7.4, 32 °C, 10 mM Tris-SO4, 2 mM MgSO4, 1 mM K2SO4, kcat apparently per octamer, malate stereo not given.

T1 sequence (P31039 44-665): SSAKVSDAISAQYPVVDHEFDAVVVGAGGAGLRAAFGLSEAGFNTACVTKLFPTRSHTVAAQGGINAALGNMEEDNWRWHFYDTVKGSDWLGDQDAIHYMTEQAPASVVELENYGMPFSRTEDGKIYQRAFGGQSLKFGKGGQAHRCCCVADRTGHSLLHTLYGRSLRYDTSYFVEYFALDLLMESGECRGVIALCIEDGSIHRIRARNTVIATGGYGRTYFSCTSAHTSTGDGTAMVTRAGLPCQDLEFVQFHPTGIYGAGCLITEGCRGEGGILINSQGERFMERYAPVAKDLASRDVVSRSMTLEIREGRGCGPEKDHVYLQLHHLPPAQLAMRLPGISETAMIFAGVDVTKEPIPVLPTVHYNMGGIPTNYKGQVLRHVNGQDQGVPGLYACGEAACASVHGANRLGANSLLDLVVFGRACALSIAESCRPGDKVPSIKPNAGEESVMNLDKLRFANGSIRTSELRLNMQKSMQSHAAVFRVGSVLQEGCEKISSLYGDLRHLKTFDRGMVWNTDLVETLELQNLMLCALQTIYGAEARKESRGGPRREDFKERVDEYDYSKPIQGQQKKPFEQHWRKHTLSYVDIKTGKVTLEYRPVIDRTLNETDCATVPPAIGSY
T1 sequence (Q3T189 29-280): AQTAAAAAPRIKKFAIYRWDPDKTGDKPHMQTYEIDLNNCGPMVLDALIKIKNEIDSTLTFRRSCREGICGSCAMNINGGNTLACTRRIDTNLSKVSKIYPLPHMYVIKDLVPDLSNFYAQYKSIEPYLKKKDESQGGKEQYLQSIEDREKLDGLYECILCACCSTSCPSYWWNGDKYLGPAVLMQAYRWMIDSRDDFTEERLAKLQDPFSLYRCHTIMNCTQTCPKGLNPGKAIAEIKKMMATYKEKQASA
T1 sequence (P35720 30-169): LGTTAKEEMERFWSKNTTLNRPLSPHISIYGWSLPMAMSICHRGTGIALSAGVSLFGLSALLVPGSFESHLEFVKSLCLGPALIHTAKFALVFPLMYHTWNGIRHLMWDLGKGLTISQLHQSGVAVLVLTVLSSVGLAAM
T1 sequence (Q95123 56-158): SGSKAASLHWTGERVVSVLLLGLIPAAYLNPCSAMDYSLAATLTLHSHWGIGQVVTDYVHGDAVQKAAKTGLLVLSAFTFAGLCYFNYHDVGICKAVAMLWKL
Sequence of FumC (fumarate hydratase) (P05042 whole entry): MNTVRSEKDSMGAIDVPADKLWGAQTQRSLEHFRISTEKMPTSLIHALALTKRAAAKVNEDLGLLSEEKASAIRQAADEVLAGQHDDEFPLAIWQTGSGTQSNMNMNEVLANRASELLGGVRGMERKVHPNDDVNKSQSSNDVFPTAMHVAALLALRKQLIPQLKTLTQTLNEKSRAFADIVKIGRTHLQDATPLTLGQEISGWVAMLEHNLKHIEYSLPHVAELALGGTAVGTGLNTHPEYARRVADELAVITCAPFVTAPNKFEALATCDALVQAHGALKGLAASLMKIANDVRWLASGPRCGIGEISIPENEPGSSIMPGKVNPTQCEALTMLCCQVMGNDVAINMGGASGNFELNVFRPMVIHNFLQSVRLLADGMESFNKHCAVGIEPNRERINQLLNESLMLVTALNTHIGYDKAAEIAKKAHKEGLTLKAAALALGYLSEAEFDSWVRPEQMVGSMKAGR

As to `O=C(O)CCC(=O)O` [succinate], the Km (commonly the substrate concentration at which the rate is half of its maximum) in data set [1] amounted to 410 ± 55 µM.

Consider `O=C(O)/C=C/C(=O)O` [fumarate], for which the Michaelis-Menten constant (Km) in data set [2] is 64 ± 7.8 µM.

As to `COc1[nH]c(=O)c(C(=O)[C@@H](C)C[C@H](C)[C@@H](Cl)CCl)c(O)c1OC` [atpenin A5], the half-maximal inhibitory concentration (IC50) – broadly, the point on the concentration scale where inhibition reaches its midpoint – in data set [3] (ubiquinone-binding site, full respiratory chain turnover to O2) was found to be 0.0024 ± 0.0012 µM.

Regarding `O=C(O)CC(=O)O` [malonate], the IC50 in data set [3] (flavin (succinate) site, read-out: IC50) was determined as 96 ± 1.3 µM.

B1: MaeB (oxaloacetate decarboxylating malic dehydrogenase) (Escherichia coli K-12) (protein)
chain: MDDQLKQSALDFHEFPVPGKIQVSPTKPLATQRDLALAYSPGVAAPCLEIEKDPLKAYKYTARGNLVAVISNGTAVLGLGNIGALAGKPVMEGKGVLFKKFAGIDVFDIEVDELDPDKFIEVVAALEPTFGGINLEDIKAPECFYIEQKLRERMNIPVFHDDQHGTAIISTAAILNGLRVVEKNISDVRMVVSGAGAAAIACMNLLVALGLQKHNIVVCDSKGVIYQGREPNMAETKAAYAVVDDGKRTLDDVIEGADIFLGCSGPKVLTQEMVKKMARAPMILALANPEPEILPPLAKEVRPDAIICTGRSDYPNQVNNVLCFPFIFRGALDVGATAINEEMKLAAVRAIAELAHAEQSEVVASAYGDQDLSFGPEYIIPKPFDPRLIVKIAPAVAKAAMESGVATRPIADFDVYIDKLTEFVYKTNLFMKPIFSQARKAPKRVVLPEGEEARVLHATQELVTLGLAKPILIGRPNVIEMRIQKLGLQIKAGVDFEIVNNESDPRFKEYWTEYFQIMKRRGVTQEQAQRALISNPTVIGAIMVQRGEADAMICGTVGDYHEHFSVVKNVFGYRDGVHTAGAMNALLLPSGNTFIADTYVNDEPDAEELAEITLMAAETVRRFGIEPRVALLSHSNFGSSDCPSSSKMRQALELVRERAPELMIDGEMHGDAALVEAIRNDRMPDSSLKGSANILVMPNMEAARISYNLLRVSSSEGVTVGPVLMGVAKPVHVLTPIASVRRIVNMVALAVVEAQTQPL
In the case of B1, the Km in the data set “purified protein [4]” came to 52 ± 2.6 µM. For the same molecule, in the data set “purified protein [5]”, the Michaelis-Menten constant (Km) is 7.3 ± 0.9 mM and the kcat (usually the maximal rate divided by the concentration of active sites) came to 92 ± 0.93 s⁻¹.
